Reference: PubChem BioAssay AID1259407 (Chemical Carcinogenesis Research Information System (CCRIS), 2018)
Active and inactive are the calls of the source. How the calls were made is not given here.

Tested on: CCRIS mutagenicity, Ames/micronucleus/aberration tests
Test: CCRIS mutagenicity studies
[1] = Test System: AMES SALMONELLA TYPHIMURIUM, Strain/Indicator: TA97, Metabolic Activation: NONE, Method: PREINCUBATION
[2] = Test System: AMES SALMONELLA TYPHIMURIUM, Strain/Indicator: TA97, Metabolic Activation: RAT, LIVER, S-9, AROCLOR 1254 (10 OR 30%), Method: PREINCUBATION
[3] = Test System: AMES SALMONELLA TYPHIMURIUM, Strain/Indicator: TA98, Metabolic Activation: HAMSTER, LIVER, S-9, AROCLOR 1254 (10 OR 30%), Method: PREINCUBATION
[4] = Test System: AMES SALMONELLA TYPHIMURIUM, Strain/Indicator: TA98, Metabolic Activation: NONE, Method: PREINCUBATION
[5] = Test System: AMES SALMONELLA TYPHIMURIUM, Strain/Indicator: TA98, Metabolic Activation: RAT, LIVER, S-9, AROCLOR 1254 (10 OR 30%), Method: PREINCUBATION
[6] = Test System: AMES SALMONELLA TYPHIMURIUM, Strain/Indicator: TA100, Metabolic Activation: HAMSTER, LIVER, S-9, AROCLOR 1254 (10 OR 30%), Method: PREINCUBATION
[7] = Test System: AMES SALMONELLA TYPHIMURIUM, Strain/Indicator: TA100, Metabolic Activation: NONE, Method: PREINCUBATION
[8] = Test System: AMES SALMONELLA TYPHIMURIUM, Strain/Indicator: TA100, Metabolic Activation: RAT, LIVER, S-9, AROCLOR 1254 (10 OR 30%), Method: PREINCUBATION
[9] = Test System: AMES SALMONELLA TYPHIMURIUM, Strain/Indicator: TA1535, Metabolic Activation: HAMSTER, LIVER, S-9, AROCLOR 1254 (10 OR 30%), Method: PREINCUBATION
[10] = Test System: AMES SALMONELLA TYPHIMURIUM, Strain/Indicator: TA1535, Metabolic Activation: NONE, Method: PREINCUBATION
[11] = Test System: AMES SALMONELLA TYPHIMURIUM, Strain/Indicator: TA98, Metabolic Activation: NONE, Method: STANDARD PLATE
[12] = Test System: AMES SALMONELLA TYPHIMURIUM, Strain/Indicator: TA98, Metabolic Activation: RAT, LIVER, S-9, AROCLOR 1254, Method: STANDARD PLATE
[13] = Test System: AMES SALMONELLA TYPHIMURIUM, Strain/Indicator: TA100, Metabolic Activation: NONE, Method: STANDARD PLATE

CCC(=O)O
mutagenic call (Test System: AMES SALMONELLA TYPHIMURIUM, Strain/Indicator: TA97, Metabolic Activation: HAMSTER, LIVER, S-9, AROCLOR 1254 (10 OR 30%), Method: PREINCUBATION): inactive; negative
mutagenic call [1]: inactive; negative
mutagenic call [2]: inactive; negative
mutagenic call (Test System: AMES SALMONELLA TYPHIMURIUM, Strain/Indicator: TA97A, Metabolic Activation: NONE, Method: PREINCUBATION): inactive; negative
mutagenic call (Test System: AMES SALMONELLA TYPHIMURIUM, Strain/Indicator: TA97A, Metabolic Activation: RAT, LIVER, S-9, AROCLOR 1254, Method: PREINCUBATION): inactive; negative
mutagenic call [3]: inactive; negative
mutagenic call [4]: inactive; negative
mutagenic call (Test System: AMES SALMONELLA TYPHIMURIUM, Strain/Indicator: TA98, Metabolic Activation: RAT LIVER S-9, PHENOBARBITAL AND BETA-NAPHTHOFLAVONE, Method: PREINCUBATION): inactive; negative
mutagenic call [5]: inactive; negative
mutagenic call [6]: inactive; negative
mutagenic call [7]: inactive; negative
mutagenic call (Test System: AMES SALMONELLA TYPHIMURIUM, Strain/Indicator: TA100, Metabolic Activation: RAT LIVER S-9, PHENOBARBITAL AND BETA-NAPHTHOFLAVONE, Method: PREINCUBATION): inactive; negative
mutagenic call [8]: inactive; negative
mutagenic call (Test System: AMES SALMONELLA TYPHIMURIUM, Strain/Indicator: TA102, Metabolic Activation: NONE, Method: PREINCUBATION): inactive; negative
mutagenic call (Test System: AMES SALMONELLA TYPHIMURIUM, Strain/Indicator: TA102, Metabolic Activation: RAT, LIVER, S-9, AROCLOR 1254, Method: PREINCUBATION): inactive; negative
mutagenic call [9]: inactive; negative
mutagenic call [10]: inactive; negative
mutagenic call (Test System: AMES SALMONELLA TYPHIMURIUM, Strain/Indicator: TA1535, Metabolic Activation: RAT LIVER S-9, PHENOBARBITAL AND BETA-NAPHTHOFLAVONE, Method: PREINCUBATION): inactive; negative
mutagenic call (Test System: AMES SALMONELLA TYPHIMURIUM, Strain/Indicator: TA1535, Metabolic Activation: RAT, LIVER, S-9, AROCLOR 1254 (10 OR 30%), Method: PREINCUBATION): inactive; negative
mutagenic call (Test System: AMES SALMONELLA TYPHIMURIUM, Strain/Indicator: TA1537, Metabolic Activation: HAMSTER, LIVER, S-9, AROCLOR 1254 (30%), Method: PREINCUBATION): inactive; negative
mutagenic call (Test System: AMES SALMONELLA TYPHIMURIUM, Strain/Indicator: TA1537, Metabolic Activation: NONE, Method: PREINCUBATION): inactive; negative
mutagenic call (Test System: AMES SALMONELLA TYPHIMURIUM, Strain/Indicator: TA1537, Metabolic Activation: RAT LIVER S-9, PHENOBARBITAL AND BETA-NAPHTHOFLAVONE, Method: PREINCUBATION): inactive; negative
mutagenic call (Test System: AMES SALMONELLA TYPHIMURIUM, Strain/Indicator: TA1537, Metabolic Activation: RAT, LIVER, S-9, AROCLOR 1254 (30%), Method: PREINCUBATION): inactive; negative
mutagenic call (Test System: E.COLI, Strain/Indicator: WP2UVRA/PKM101, Metabolic Activation: NONE, Method: PREINCUBATION): inactive; negative
mutagenic call (Test System: E.COLI, Strain/Indicator: WP2UVRA/PKM101, Metabolic Activation: RAT LIVER S-9, PHENOBARBITAL AND BETA-NAPHTHOFLAVONE, Method: PREINCUBATION): inactive; negative

Nc1cc(Cl)nc(C(=O)O)c1Cl
mutagenic call (End Point: In vitro chromosomal aberrations, Test System: Primary rat lymphocytes, Metabolic Activation: Rodent S-9): inactive; negative
mutagenic call (Test System: Ames Salmonella typhimurium, Strain/Indicator: TA98, Metabolic Activation: None, Method: Preincubation): inactive; negative; purity 94.5%
mutagenic call (Test System: Ames Salmonella typhimurium, Strain/Indicator: TA98, Metabolic Activation: Rat, Liver, S-9, Aroclor 1254, Method: Preincubation): inactive; negative; purity 94.5%
mutagenic call (Test System: Ames Salmonella typhimurium, Strain/Indicator: TA100, Metabolic Activation: None, Method: Preincubation): inactive; negative; purity 94.5%
mutagenic call (Test System: Ames Salmonella typhimurium, Strain/Indicator: TA100, Metabolic Activation: Rat, Liver, S-9, Aroclor 1254, Method: Preincubation): inactive; negative; purity 94.5%
mutagenic call (Test System: Ames Salmonella typhimurium, Strain/Indicator: TA1535, Metabolic Activation: None, Method: Preincubation): inactive; negative; purity 94.5%
mutagenic call (Test System: Ames Salmonella typhimurium, Strain/Indicator: TA1535, Metabolic Activation: Rat, Liver, S-9, Aroclor 1254, Method: Preincubation): inactive; negative; purity 94.5%
mutagenic call (Test System: Ames Salmonella typhimurium, Strain/Indicator: TA1537, Metabolic Activation: None, Method: Preincubation): inactive; negative; purity 94.5%
mutagenic call (Test System: Ames Salmonella typhimurium, Strain/Indicator: TA1537, Metabolic Activation: Rat, Liver, S-9, Aroclor 1254, Method: Preincubation): inactive; negative; purity 94.5%
mutagenic call (Test System: Chinese hamster ovary cells, Strain/Indicator: CHO-K1-BH4/HGPRT, Metabolic Activation: None, Method: Forward mutation assay): inactive; negative
mutagenic call (Test System: Chinese hamster ovary cells, Strain/Indicator: CHO-K1-BH4/HGPRT, Metabolic Activation: Rat, Liver, S-9, Aroclor 1254, Method: Forward mutation assay): inactive; negative; purity 94.5%
mutagenic call (Test System: E. coli, Strain/Indicator: WP2 UVR A, Metabolic Activation: None, Method: Preincubation): inactive; negative
mutagenic call (Test System: E. coli, Strain/Indicator: WP2 UVRA, Metabolic Activation: Rat, Liver, S-9, Aroclor 1254, Method: Preincubation): inactive; negative

CCC12OC1(C(=O)OC)C(=O)OC2C (centres undefined)
mutagenic call (Test System: AMES SALMONELLA TYPHIMURIUM, Strain/Indicator: TA98, Metabolic Activation: NONE, Method: DISK ASSAY): inactive; negative
mutagenic call [11]: inactive; negative
mutagenic call (Test System: AMES SALMONELLA TYPHIMURIUM, Strain/Indicator: TA98, Metabolic Activation: RAT, LIVER, S-9, AROCLOR 1254, Method: DISK ASSAY): inactive; negative
mutagenic call [12]: active; positive

c1ccc2c(OCC3CO3)nsc2c1 (centres undefined)
mutagenic call [13]: active; positive

Nc1cc([N+](=O)[O-])cc(S(=O)(=O)O)c1O
mutagenic call (Test System: AMES SALMONELLA TYPHIMURIUM, Strain/Indicator: TA97, Metabolic Activation: HAMSTER, LIVER, S-9, AROCLOR 1254 (10%), Method: PREINCUBATION): inactive; negative
mutagenic call (Test System: AMES SALMONELLA TYPHIMURIUM, Strain/Indicator: TA97, Metabolic Activation: HAMSTER, LIVER, S-9, AROCLOR 1254 (30%), Method: PREINCUBATION): inactive; negative
mutagenic call [1]: inactive; negative
mutagenic call [2]: inactive; negative
mutagenic call [3]: inactive; negative
mutagenic call [4]: inactive; negative
mutagenic call [5]: inactive; negative
mutagenic call [6]: inactive; negative
mutagenic call [7]: inactive; negative
mutagenic call [8]: inactive; negative
mutagenic call [9]: inactive; negative
mutagenic call [10]: inactive; negative
mutagenic call (Test System: AMES SALMONELLA TYPHIMURIUM, Strain/Indicator: TA1535, Metabolic Activation: RAT, LIVER, S-9, AROCLOR 1254 (10%), Method: PREINCUBATION): inactive; negative

CC(=O)n1ncc(Cl)c(Cl)c1=O
mutagenic call [11]: inactive; negative
mutagenic call [12]: inactive; negative
mutagenic call [13]: inactive; negative
mutagenic call (Test System: AMES SALMONELLA TYPHIMURIUM, Strain/Indicator: TA100, Metabolic Activation: RAT, LIVER, S-9, AROCLOR 1254, Method: STANDARD PLATE): inactive; negative
mutagenic call (Test System: AMES SALMONELLA TYPHIMURIUM, Strain/Indicator: TA1535, Metabolic Activation: NONE, Method: STANDARD PLATE): inactive; negative
mutagenic call (Test System: AMES SALMONELLA TYPHIMURIUM, Strain/Indicator: TA1535, Metabolic Activation: RAT, LIVER, S-9, AROCLOR 1254, Method: STANDARD PLATE): inactive; negative
mutagenic call (Test System: AMES SALMONELLA TYPHIMURIUM, Strain/Indicator: TA1537, Metabolic Activation: NONE, Method: STANDARD PLATE): inactive; negative
mutagenic call (Test System: AMES SALMONELLA TYPHIMURIUM, Strain/Indicator: TA1537, Metabolic Activation: RAT, LIVER, S-9, AROCLOR 1254, Method: STANDARD PLATE): inactive; negative
